Measurements taken from the supplement of paper PMC8024199.
± gives the standard deviation of the averaged measurements.

Legend:
Experiment in all cases: drug sensitivity score (DSS) (DSS score); higher = more sensitive (stronger growth inhibition); extreme values may be limits of the assay
[1] = tested on: Ba/F3 P210-BCR-ABL1 RUNX1-/- (mouse)
Summary of the method: (§1)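 A drug sensitivity score summarised each dose-response curve, with luminescence from CellTiter-Glo scaled between vehicle and positive-control wells. Values are the mean of two replicates. The cells were mouse Ba/F3 clones that were CRISPR/Cas9-edited at a target exon or were edited controls, exposed on pre-printed 384-well plates to a 528-compound library at five concentrations spanning a 10,000-fold range. Plates held 10,000 cells per well in RPMI with 10% FBS for 72 h at 37 °C and 5% CO2.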

[2] = tested on: Ba/F3 P210-BCR-ABL1 RUNX1-/mut (mouse)
Summary of the method: as §1

[3] = tested on: Ba/F3 P210-BCR-ABL1 RUNX1wt/wt control (mouse)
Summary of the method: as §1

COc1cc(Br)c(Nc2nc(-c3c(C)nc4ncccn34)cs2)c(Br)c1 [PTC-209]
drug sensitivity score [1]: 9.05 ± 2.6
drug sensitivity score [2]: 7.8 ± 2.4
drug sensitivity score [3]: 7.5 ± 0.14

NCCNc1ccc(NCCN)c2c1C(=O)c1ccncc1C2=O [Pixantrone]
drug sensitivity score [1]: 1.95 ± 1.3
drug sensitivity score [2]: 2.45 ± 1.1
drug sensitivity score [3]: 0

Nc1nccc(-c2c(-c3ccc(F)cc3)ncn2C2CCCCC2)n1
drug sensitivity score [1]: 0.05 ± 0.071
drug sensitivity score [2]: 0
drug sensitivity score [3]: 0

O=C(c1ccc(F)c(F)c1Nc1ccc(I)cc1F)N1CC(O)([C@@H]2CCCCN2)C1 [Cobimetinib]
drug sensitivity score [1]: 9.05 ± 0.78
drug sensitivity score [2]: 4.6 ± 1.8
drug sensitivity score [3]: 0

CNS(=O)(=O)Nc1nccc(Cc2c(C)c3ccc(Oc4ncccn4)cc3oc2=O)c1F
drug sensitivity score [1]: 2.4 ± 0.14
drug sensitivity score [2]: 0.3 ± 0.42
drug sensitivity score [3]: 0

CCn1c(-c2nonc2N)nc2cnc(Oc3cccc(NC(=O)c4ccc(OCCN5CCOCC5)cc4)c3)cc21
drug sensitivity score [1]: 5.55 ± 1.1
drug sensitivity score [2]: 4.25 ± 2.3
drug sensitivity score [3]: 1.45 ± 0.071

N#Cc1ccc2[nH]c(O)c(-c3ccc(CN4CCOCC4)cn3)c2c1 [AZD-1080]
drug sensitivity score [1]: 0
drug sensitivity score [2]: 0
drug sensitivity score [3]: 0

CC(C)n1nc(-c2ccc3oc(N)nc3c2)c2c(N)ncnc21 [Sapanisertib]
drug sensitivity score [1]: 16.9 ± 0.35
drug sensitivity score [2]: 16.6 ± 2.5
drug sensitivity score [3]: 11.3 ± 0.49

Nc1ncnc2c1c(COc1cccc(Cl)c1)nn2C1CCOCC1
drug sensitivity score [1]: 1.6 ± 1.1
drug sensitivity score [2]: 1.05 ± 1.1
drug sensitivity score [3]: 0.05 ± 0.071

CNC(=O)c1cccc(-c2ccc3c(N4CCOC[C@@H]4C)nc(N4CCOC[C@@H]4C)nc3n2)c1 [Vistusertib]
drug sensitivity score [1]: 18.8 ± 0.35
drug sensitivity score [2]: 16.1 ± 3.8
drug sensitivity score [3]: 11

COc1cc2c(NC3CCN(C(C)C)CC3)nc(N3CCC(F)(F)CC3)nc2cc1OCCCN1CCCC1 [UNC0642]
drug sensitivity score [1]: 5.35 ± 1.6
drug sensitivity score [2]: 6.5 ± 3
drug sensitivity score [3]: 0.15 ± 0.071

CCc1cnn2c(NCc3ccc[n+]([O-])c3)cc(N3CCCC[C@H]3CCO)nc12 [Dinaciclib]
drug sensitivity score [1]: 19.6 ± 2.3
drug sensitivity score [2]: 19.9 ± 0.35
drug sensitivity score [3]: 18.6 ± 0.78

CC1(C)CC[C@]2(NC(=O)C(C)(F)F)CC[C@]3(C)[C@H](C(=O)C=C4[C@@]5(C)C=C(C#N)C(=O)C(C)(C)[C@@H]5CC[C@]43C)[C@@H]2C1 [Omaveloxolone]
drug sensitivity score [1]: 22.9 ± 0.28
drug sensitivity score [2]: 22.4 ± 0.78
drug sensitivity score [3]: 17.2 ± 0.14

C#Cc1cccc(Nc2ncnc3cc4c(cc23)OCCOCCOCCO4)c1 [Icotinib]
drug sensitivity score [1]: 0
drug sensitivity score [2]: 0
drug sensitivity score [3]: 0

COc1cc(N2CCN(C)CC2)ccc1Nc1nccc(-c2cn(C)c3cnccc23)n1 [AZ191]
drug sensitivity score [1]: 7.2 ± 1.4
drug sensitivity score [2]: 7.45 ± 2.2
drug sensitivity score [3]: 2.5 ± 0.71

COc1cc(NS(C)(=O)=O)ccc1Nc1c2ccccc2nc2ccccc12 [Amsacrine]
drug sensitivity score [1]: 35.3 ± 2.7
drug sensitivity score [2]: 25.3 ± 0.71
drug sensitivity score [3]: 21.6 ± 0.85

CCCCNc1ncc(C(=O)NCc2ccc(-n3ccnc3)cc2)c(NC2CCC(O)CC2)n1 (stereo unspecified) [UNC2881]
drug sensitivity score [1]: 0.3 ± 0.42
drug sensitivity score [2]: 0
drug sensitivity score [3]: 0

COc1cc(C(=O)O)ccc1NC(=O)[C@@H]1N[C@@H](CC(C)(C)C)[C@](C#N)(c2ccc(Cl)cc2F)[C@H]1c1cccc(Cl)c1F [Idasanutlin]
drug sensitivity score [1]: 9.4 ± 13
drug sensitivity score [2]: 8.5 ± 12
drug sensitivity score [3]: 5.05 ± 0.21

Cc1cccc(CC(=O)N2CCc3c2ccc(-c2cn(C)c4ncnc(N)c24)c3F)n1
drug sensitivity score [1]: 1.85 ± 0.49
drug sensitivity score [2]: 0.55 ± 0.21
drug sensitivity score [3]: 2.45 ± 0.35

CCS(=O)(=O)c1cccc(-c2cc(C(=O)NC3CCN(C)CC3)c(C)c3[nH]c4ncc(C)cc4c23)c1 [TAK-901]
drug sensitivity score [1]: 5.8 ± 0.99
drug sensitivity score [2]: 3.55 ± 0.49
drug sensitivity score [3]: 0

CCOC(=O)C1=CCCC[C@H]1S(=O)(=O)Nc1ccc(F)cc1Cl [Resatorvid]
drug sensitivity score [1]: 0
drug sensitivity score [2]: 0
drug sensitivity score [3]: 0

CCNCCS(=O)(=O)NC[C@@]1(c2ccccc2)SC(NC(=O)C(C)(C)C)=NN1C(=O)C(C)(C)C [Litronesib]
drug sensitivity score [1]: 24.2 ± 1.6
drug sensitivity score [2]: 21.5 ± 2.4
drug sensitivity score [3]: 10.9 ± 0.28

CC(C)c1cc(C(=O)N2Cc3ccc(CN4CCN(C)CC4)cc3C2)c(O)cc1O [Onalespib]
drug sensitivity score [1]: 19.1 ± 2.9
drug sensitivity score [2]: 17.8 ± 1.1
drug sensitivity score [3]: 14.6 ± 0.21

NC(=O)c1cccc2cn(-c3ccc([C@@H]4CCCNC4)cc3)nc12 [Niraparib]
drug sensitivity score [1]: 7.8 ± 0.99
drug sensitivity score [2]: 8.15 ± 3.3
drug sensitivity score [3]: 2.7 ± 0.71

C[C@H](Nc1ncnc2nc[nH]c12)c1cc2cccc(Cl)c2c(=O)n1-c1ccccc1 [Duvelisib]
drug sensitivity score [1]: 2.6 ± 0.99
drug sensitivity score [2]: 2.35 ± 3.3
drug sensitivity score [3]: 0

C=CC(=O)N1CC/C(=C\c2ccc(F)c([N+](=O)[O-])c2)C(=O)/C(=C/c2ccc(F)c([N+](=O)[O-])c2)C1 [VLX1570]
drug sensitivity score [1]: 23.1 ± 0.78
drug sensitivity score [2]: 23.5 ± 4.7
drug sensitivity score [3]: 15.8 ± 0.92

CC/C(=C(\c1ccccc1)c1ccc(OCCN(C)C)cc1)c1ccccc1 [Tamoxifen]
drug sensitivity score [1]: 6.2 ± 1.6
drug sensitivity score [2]: 7.5 ± 1.3
drug sensitivity score [3]: 3.5 ± 0.28

c1cn2cc(-c3ccc4cn[nH]c4c3)nc(Nc3ccc(N4CCOCC4)cc3)c2n1 [Entospletinib]
drug sensitivity score [1]: 1.95 ± 1.3
drug sensitivity score [2]: 1.35 ± 1.9
drug sensitivity score [3]: 0

CC(C)NC(=O)COc1cccc(-c2nc(Nc3ccc4[nH]ncc4c3)c3ccccc3n2)c1 [KD025]
drug sensitivity score [1]: 2 ± 1.7
drug sensitivity score [2]: 2.3 ± 1.4
drug sensitivity score [3]: 0

CCOc1ccn(-c2ccc(F)cc2)c(=O)c1C(=O)Nc1ccc(Oc2ccnc(N)c2Cl)c(F)c1
drug sensitivity score [1]: 0.1 ± 0.14
drug sensitivity score [2]: 0
drug sensitivity score [3]: 0

COCCNCc1ccc(-c2cc3nccc(Oc4ccc(NC(=S)NC(=O)Cc5ccc(F)cc5)cc4F)c3s2)nc1 [Glesatinib]
drug sensitivity score [1]: 7.4 ± 0.14
drug sensitivity score [2]: 3.55 ± 1.1
drug sensitivity score [3]: 0

C[C@H]1C[C@@H](n2c(Nc3ccc(OC(F)(F)F)cc3)nc3cc(CCC(=O)O)ccc32)CC(C)(C)C1
drug sensitivity score [1]: 0.8 ± 1.1
drug sensitivity score [2]: 1.4 ± 2
drug sensitivity score [3]: 0

CC(C)[C@H]1C(=O)N[C@@H](CCCNC(=N)N)C(=O)NCC(=O)N[C@@H](CC(=O)O)C(=O)N[C@H](Cc2ccccc2)C(=O)N1C [Cilengitide]
drug sensitivity score [1]: 0
drug sensitivity score [2]: 0
drug sensitivity score [3]: 0

NCC(=O)Nc1ccc(-n2nc(C(F)(F)F)cc2-c2ccc3c(ccc4ccccc43)c2)cc1
drug sensitivity score [1]: 0.6 ± 0.85
drug sensitivity score [2]: 0
drug sensitivity score [3]: 0

COc1ccc2[nH]cc(/C=C3\C(=O)Nc4ccc(NC(=O)CCN5CCCCC5)cc43)c2c1
drug sensitivity score [1]: 14.8 ± 2.5
drug sensitivity score [2]: 15.2 ± 4.4
drug sensitivity score [3]: 6.05 ± 1.1

Cc1ncc(-c2ccnc(Nc3ccc(S(C)(=O)=O)cc3)n2)n1C(C)C [AZD-5438]
drug sensitivity score [1]: 5.5 ± 0.99
drug sensitivity score [2]: 8.8 ± 0.99
drug sensitivity score [3]: 9.8 ± 0.14

Cc1nc(Nc2n[nH]c3c2CN(C(=O)N[C@H](CN(C)C)c2ccccc2)C3(C)C)c2sccc2n1
drug sensitivity score [1]: 40.15 ± 0.35
drug sensitivity score [2]: 37.2 ± 0.64
drug sensitivity score [3]: 24.85 ± 0.071
